Results on 5 molecules are retold here after patent US20250213705A1, “PSMA TARGETING LIGANDS AND METHODS OF USE” (Bright Peak Therapeutics AG, priority 2023, published 2025).

Assay [1] addresses human FOLH1 (Homo sapiens (Human), UniProt Q04609). Put plainly: SPR analysis of binding kinetics to biotinylated FOLH1 (Biacore 8K). Particulars: ligand PSMA; for Kd: kinetic 1:1 binding model; for Kon: association rate; for koff: dissociation rate. The procedure:
The interaction of PSMA-binding variants with human FOLH1 was measured with Surface Plasmon Resonance (SPR) technology. Biotinylated FOLH1 was captured at a concentration of 30 μg/mL onto a Streptavidin chip.
Binding kinetics of the analytes were measured with a Biacore 8K instrument in two-fold serial dilutions starting at 500 nM down to 1.95 nM in single cycle kinetic measurements. After each cycle, needles were washed with 50% DMSO. To measure the association to the FOLH1 protein, the samples were injected with a flow rate of 30 μL/min for 90 s, followed by 1200 s buffer only to detect the dissociation. The used running buffer was 1×PBS with 0.05% Tween20 and 2% DMSO. The relative response units (RU, Y-axis) are plotted against time (s, X-axis) and analyzed in a kinetic 1:1 binding model.
In a different setup, biotinylated FOLH1 was captured at a concentration of 0.8 μg/mL and the running buffer was 1×PBS with 0.05% Tween20.

Assay [2] addresses PSMA+ cells (22rv1 human prostate carcinoma epithelial cell line) (Homo sapiens (Human), UniProt Q04609). In words: Cellular competition assay on PSMA+ cells (flow cytometry, competition with BPT1288), 22rv1. Format: cell-based.
Protocol: On the day of experiment, cells were harvested with Trypsin and washed with assay buffer consisting of 1×PBS supplemented with 2% FBS and stained with viability dye (Biolegend Zombie NIR) diluted 1:1000 in PBS for 20 minutes. After washing and counting, cells were seeded at 50,000 cells/well in a 96 well V bottom polypropylene plate and kept on ice. Twelve 4-fold serial dilutions of analytes were prepared in cold assay buffer and added to cell suspension.
Single-cell AlexaFluor488 fluorescence emission was measured with a flow cytometer and plotted against analyte concentration in X-axis. Half maximal inhibition concentrations (IC50) were calculated based on a variable slope and four parameter analysis using GraphPad PRISM software
The target in assay [3] is Recombinant Human PSMA/FOLH1 Protein (Homo sapiens (Human), UniProt Q04609). In words: Inhibition assay (Amplex Red glutamic acid/glutamate oxidase, NAAG substrate). The note with it: Target PSMA, average of N replicates; for IC50: PSMA 5 nM, NAAG 40 μM; for Ki: calculated based on Cheng-Prusoff equation. Format: biochemical. A digest of the protocol: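 NAAG hydrolysis by recombinant human PSMA, with released glutamate read through a coupled Amplex Red system (glutamate oxidase, HRP, glutamate-pyruvate transaminase, 200 μM L-alanine in the working solution). EC50 fitted and Ki derived by Cheng-Prusoff.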

SMILES strings stand for the structures.

Sequence of Recombinant Human PSMA/FOLH1 Protein (Q04609 whole entry): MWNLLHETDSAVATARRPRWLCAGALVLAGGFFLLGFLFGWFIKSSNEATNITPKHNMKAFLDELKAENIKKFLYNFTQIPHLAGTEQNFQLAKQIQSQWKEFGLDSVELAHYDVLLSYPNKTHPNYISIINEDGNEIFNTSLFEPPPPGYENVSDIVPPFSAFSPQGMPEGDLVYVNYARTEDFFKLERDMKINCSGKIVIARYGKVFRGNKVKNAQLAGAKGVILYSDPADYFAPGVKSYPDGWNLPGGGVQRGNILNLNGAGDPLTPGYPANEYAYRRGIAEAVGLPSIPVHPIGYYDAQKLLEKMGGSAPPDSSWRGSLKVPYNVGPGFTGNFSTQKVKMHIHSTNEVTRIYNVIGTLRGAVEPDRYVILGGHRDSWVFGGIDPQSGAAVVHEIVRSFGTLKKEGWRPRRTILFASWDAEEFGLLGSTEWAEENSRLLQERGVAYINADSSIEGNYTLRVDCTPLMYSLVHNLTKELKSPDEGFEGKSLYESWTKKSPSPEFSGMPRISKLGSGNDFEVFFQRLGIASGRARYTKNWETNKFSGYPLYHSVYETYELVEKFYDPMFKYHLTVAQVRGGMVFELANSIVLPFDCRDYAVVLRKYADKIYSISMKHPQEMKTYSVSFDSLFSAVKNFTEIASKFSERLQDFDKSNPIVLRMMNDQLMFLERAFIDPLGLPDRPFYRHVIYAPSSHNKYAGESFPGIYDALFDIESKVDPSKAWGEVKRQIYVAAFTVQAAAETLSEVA
Sequence of human FOLH1 (Q04609 whole entry): as above
Sequence of PSMA+ cells (22rv1 human prostate carcinoma epithelial cell line) (Q04609 whole entry): as above

Turning to `CC(=O)NCCOCCOCCOCCC(=O)NC[C@H]1CC[C@H](C(=O)N[C@@H](Cc2ccc3ccccc3c2)C(=O)NCCCC[C@H](NC(=O)N[C@@H](CCC(=O)O)C(=O)O)C(=O)O)CC1` [Compound 8], the Kd in assay [1] is 0.654 nM. The IC50 in assay [2] was determined as 2.65 nM. Moreover, in assay [3], the IC50 worked out at 29.3 nM and the Ki was 0.21 nM.

As for `CC(=O)NCCOCCOCCOCCC(=O)N[C@@H]1C[C@@H](C(=O)NCC(=O)N[C@@H](Cc2ccc3ccccc3c2)C(=O)NCCCC[C@H](NC(=O)N[C@@H](CCC(=O)O)C(=O)O)C(=O)O)N(C(=O)COc2cc(C#N)cc(C#N)c2)C1` [Compound 90], in assay [1], the Kon was 183000 1.ms, the koff was 0.000232 s⁻¹ and the Kd was found to be 1.27 nM. For the same molecule, in assay [3], the IC50 came out at 87.6 nM and the Ki was 0.626 nM.

Take `CC(=O)NCCOCCOCCOCCC(=O)N[C@@H](Cc1cccc(C(=O)O)c1)C(=O)NCCC(=O)N[C@@H](Cc1ccc2ccccc2c1)C(=O)NCCCC[C@H](NC(=O)N[C@@H](CCC(=O)O)C(=O)O)C(=O)O` [Compound 93]: in assay [1], the Kon is on record as 149000 1.ms, the koff stood at 0.000258 s⁻¹ and the Kd worked out at 1.73 nM. In assay [3], the IC50 turned out to be 9.6 nM and the Ki was 0.0686 nM.

Regarding `CC(=O)NCCOCCOCCOCCC(=O)N[C@@H](Cc1ccc(C(=O)O)cc1)C(=O)NCCC(=O)N[C@@H](Cc1ccc2ccccc2c1)C(=O)NCCCC[C@H](NC(=O)N[C@@H](CCC(=O)O)C(=O)O)C(=O)O` [Compound 95], in assay [1], the Kon is on record as 124000 1.ms, the koff was determined as 0.000242 s⁻¹ and binding was characterised by a dissociation constant (Kd) of 1.95 nM. Moreover, in assay [3], the IC50 was found to be 11.5 nM and the Ki was 0.0823 nM.

`CC(=O)NCCOCCOCCOCCC(=O)N[C@@H](Cc1ccc(C(=O)O)cc1)C(=O)NCCCC(=O)N[C@@H](Cc1ccc2ccccc2c1)C(=O)NCCCC[C@H](NC(=O)N[C@@H](CCC(=O)O)C(=O)O)C(=O)O` [Compound 97]: in assay [1], the Kon is reported as 90100 1.ms, the koff was found to be 0.000328 s⁻¹ and the Kd was 3.64 nM. In assay [3], the IC50 came out at 10.8 nM and the Ki is 0.077 nM.

By Kd is commonly meant the equilibrium constant for the complex coming apart. The IC50 is the point on the concentration scale where inhibition reaches its midpoint. What is called Ki is the dissociation constant of the complex between target and ligand, obtained from inhibition or displacement. By koff is commonly meant a measure of how fast the partners let go of each other. A low value points to a long-lived complex.
